# Patent US6873914B2, “Methods and systems for analyzing complex biological systems” (Icoria, Inc., priority 2001, dated 2005)
# Experiments:
# [1] = test system: Saccharomyces cerevisiae wild type strain BY4743; assay: AF1 combined gene expression and metabolite data mapped to KEGG reactions and pathways, cluster analysis; format: cell-based
# From the text: In AF1, two different technologies were utilized: gene expression analysis (for examination of mRNA expression) and metabolite analysis. […] As noted previously, existing metabolic databases may be helpful in practicing the methods and systems of the present invention, but many databases include limitations that make their use in data analysis and pathway mapping less than straightforward. […] This caveat to KEGG makes it difficult to pinpoint the correct pathway when attempting to link a gene to a specific pathway. […] The pathway score indicates how meaningful the mapping is, or how likely it is to be correctly indicative of the pathway involved in the perturbation under examination. […] Degree of perturbation can be calculated, for example, based on a number of standard deviations from a norm, and included in an equation such as the one shown above, so that not only the number of pathways is taken into account, but also accounts for the amount of gene transcript or compound present as compared to a control. […] KEGG links 676 compounds measured in AF1 to a total of 92 pathways. Of the 676 compounds under consideration, 77 were detected in the AF1 samples. […]
# [2] = test system: Saccharomyces cerevisiae wild type strain BY4743; assay: AF1 metabolite analysis (GC-MS, LC-MS) of yeast cells treated with antifungal drugs; format: cell-based
smiles,measurement,setting,value
C[C@@H]1[C@H](O)[C@@H](C)/C=C/C=C/C=C/C=C/C=C/C=C/C=C/[C@H](O[C@@H]2O[C@H](C)[C@@H](O)[C@H](N)[C@@H]2O)C[C@@H]2O[C@](O)(C[C@@H](O)C[C@@H](O)[C@H](O)CC[C@@H](O)C[C@@H](O)CC(=O)O[C@H]1C)C[C@H](O)[C@H]2C(=O)O [Amphoteracin B],# Reactions Having an Enzyme and at Least One Compound Perturbed,[1],54
same,squalene and lanosterol in treated yeast cells,"[2]; AF1, 2×MIC, two hours",not
same,Fold Change: campesterol,[2]; GC,0
same,Fold Change: desmosterol,[2]; GC,0
same,Fold Change: octadecanoic acid,[2]; GC,0.21
same,Fold Change: abscisic acid,[2]; LC,0
same,Fold Change: adenosine,[2]; LC,0
same,Fold Change: riboflavin,[2]; LC,0
same,Fold Change: 4-methylcatechol,[2]; nLC,0
same,Fold Change: 5hydroxyLtryptophan,[2]; nLC,0
same,Fold Change: 6-benzylaminopurine,[2]; nLC,0
same,Fold Change: NacetylDglucosamine,[2]; nLC,0
same,Fold Change: NacetylLornithine,[2]; nLC,0
same,Fold Change: abscisic acid,[2]; nLC,0
same,Fold Change: adenine,[2]; nLC,0
same,Fold Change: adenosine,[2]; nLC,0
same,Fold Change: anthranilic acid,[2]; nLC,0
same,Fold Change: argininosuccinate,[2]; nLC,0
same,Fold Change: benzoic acid,[2]; nLC,0
same,Fold Change: catechol,[2]; nLC,0
same,Fold Change: cinnamic acid,[2]; nLC,0
same,Fold Change: citricanoic/itaconi,[2]; nLC,0
same,Fold Change: coumaric acid,[2]; nLC,0
same,Fold Change: cytosine,[2]; nLC,0
same,Fold Change: diaminopimelic acid,[2]; nLC,0
same,Fold Change: dihydrofolic acid,[2]; nLC,0
same,Fold Change: estrone,[2]; nLC,0
same,Fold Change: farnesol,[2]; nLC,0
same,Fold Change: folic acid,[2]; nLC,0
same,Fold Change: gibberellic,[2]; nLC,0
same,Fold Change: guanine,[2]; nLC,0
same,Fold Change: histidine,[2]; nLC,0
same,Fold Change: homogentisic/uric,[2]; nLC,0
same,Fold Change: hydrocortisone,[2]; nLC,0
same,Fold Change: indole3pyruvic acid,[2]; nLC,0
same,Fold Change: jasmonic acid,[2]; nLC,0
same,Fold Change: kinetin,[2]; nLC,0
same,Fold Change: luteolin,[2]; nLC,0
same,Fold Change: malonic acid,[2]; nLC,0
same,Fold Change: methionine,[2]; nLC,0
same,Fold Change: phenylpyruvic acid,[2]; nLC,0
same,Fold Change: phosphoenolpyruvate,[2]; nLC,0
same,Fold Change: pinitol,[2]; nLC,0
same,Fold Change: porphobilinogen,[2]; nLC,0
same,Fold Change: retinoic acid,[2]; nLC,0
same,Fold Change: salicylic/HObenzoic,[2]; nLC,0
same,Fold Change: shikimic acid,[2]; nLC,0
same,Fold Change: sinapinic acid,[2]; nLC,0
same,Fold Change: thymine,[2]; nLC,0
same,Fold Change: 4-aminobenzoic acid,[2]; pLC,0
same,Fold Change: 4-methylcatechol,[2]; pLC,0
same,Fold Change: 5hydroxyLtryptophan,[2]; pLC,0
same,Fold Change: 6benzylaminopurine,[2]; pLC,0
same,Fold Change: NacetylDglucosamine,[2]; pLC,0
same,Fold Change: NacetylLglutamate,[2]; pLC,0
same,Fold Change: allantoic acid,[2]; pLC,0
same,Fold Change: anthranilic acid,[2]; pLC,0
same,Fold Change: argininosuccinate,[2]; pLC,0
same,Fold Change: biotin,[2]; pLC,0
same,Fold Change: caffeine,[2]; pLC,0
same,Fold Change: citric acid TME,[2]; pLC,0
same,Fold Change: cytidine,[2]; pLC,0
same,Fold Change: cytosine,[2]; pLC,0
same,Fold Change: diaminopimelic acid,[2]; pLC,0
same,Fold Change: dihydrofolic acid,[2]; pLC,0
same,Fold Change: dipicolinic acid,[2]; pLC,0
same,Fold Change: folic acid,[2]; pLC,0
same,Fold Change: glucosamine,[2]; pLC,0
same,Fold Change: glucosamine6PO4,[2]; pLC,0
same,Fold Change: histidine,[2]; pLC,0
same,Fold Change: hydrocortisone,[2]; pLC,0
same,Fold Change: itaconic acid dimes,[2]; pLC,0
same,Fold Change: kinetin,[2]; pLC,0
same,Fold Change: luteolin,[2]; pLC,0
same,Fold Change: niacinamide,[2]; pLC,0
same,Fold Change: nopaline,[2]; pLC,0
same,Fold Change: phosphoenolpyruvate,[2]; pLC,0
same,Fold Change: progesterone,[2]; pLC,0
same,Fold Change: sugar-phosphate,[2]; pLC,0
same,Fold Change: thiamine,[2]; pLC,0
same,Fold Change: thymine,[2]; pLC,0
same,Fold Change: tryptophan,[2]; pLC,0
